Measured values as given in US20080234337A1, “Preventive and/or Remedy for Hyperkalemia Containing Ep4 Agonist” (ONO PHARMACEUTICAL CO., LTD., priority 2004, published 2008).

Molecular target: T1, EP4 (Cavia porcellus, UniProt Q1HG69)
T1 construct: Tissue samples including submucosal ganglia and mucosa were obtained by removal of myenteric plexus; from tissue; host or cells: guinea pig distal colon (mucosa with submucosal ganglia), mounted in Ussing flux chambers
Test: Short-circuit current (Isc) measurement of colonic ion transport in guinea pig distal colon tissue using Ussing flux chamber (investigation of EP4 agonistic activity)
Format: cell-based

T1 sequence (Q1HG69 1-487): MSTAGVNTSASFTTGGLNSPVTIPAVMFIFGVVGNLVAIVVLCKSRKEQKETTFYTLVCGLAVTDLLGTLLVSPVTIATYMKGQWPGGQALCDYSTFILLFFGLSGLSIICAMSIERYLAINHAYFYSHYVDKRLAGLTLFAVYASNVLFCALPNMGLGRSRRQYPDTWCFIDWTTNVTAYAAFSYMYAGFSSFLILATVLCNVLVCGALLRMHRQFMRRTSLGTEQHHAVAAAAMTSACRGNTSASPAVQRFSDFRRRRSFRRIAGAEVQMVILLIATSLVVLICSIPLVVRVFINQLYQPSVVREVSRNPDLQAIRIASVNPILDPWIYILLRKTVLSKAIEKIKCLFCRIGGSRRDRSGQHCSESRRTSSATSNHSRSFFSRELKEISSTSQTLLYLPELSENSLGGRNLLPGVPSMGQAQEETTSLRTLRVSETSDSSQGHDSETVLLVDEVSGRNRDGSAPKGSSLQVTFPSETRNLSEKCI

SMILES	change of short-circuit current (Isc) (addition of test compound into serosal chamber, concentration not given, FIG. 3)	decrease of short-circuit current (Isc) in presence of EP4 antagonist (PGE2 at low concentration plus EP4 antagonist (not named))	change of short-circuit current (Isc) (added into serosal chamber at 10^-5 mol/L, tetrodotoxin and piroxicam pretreatment, FIG. 1)	change of short-circuit current (Isc) (added into serosal chamber at 10^-6 mol/L, tetrodotoxin and piroxicam pretreatment, FIG. 1)	change of short-circuit current (Isc) (added into serosal chamber at from 10^-8 to 10^-7 mol/L, tetrodotoxin and piroxicam pretreatment, FIG. 1)	change of short-circuit current (Isc) (low concentration)	potassium secretion (suggested by decrease of Isc) (low concentration)
COCc1cccc(C[C@H](O)/C=C/[C@H]2[C@H](O)CC(=O)[C@@H]2SCCCSCC(=O)O)c1 [compound 1, ({3-[((1R,2S,3R)-3-hydroxy-2-{(1E,3S)-3-hydroxy-4-[3-(methoxymethyl)phenyl]but-1-enyl}-5-oxocyclopentyl)sulfanyl]propyl}sulfanyl)acetic acid]	decrease of short-circuit current (Isc)	–	–	–	–	–	–
CCCCC[C@H](O)/C=C/[C@H]1[C@H](O)CC(=O)[C@@H]1C/C=C\CCCC(=O)O [PGE2]	–	countered by EP4 antagonist	biphasic [Transient phase, Sustained Phase] change of short-circuit current (Isc)	temporary increase of Isc	decrease of Isc	decrease of short-circuit current (Isc)	promoted the potassium secretion
